Laboratory results published in BigSolDB 2.1.

COc1c(C(C)(C)C)cc([N+](=O)[O-])c(C)c1[N+](=O)[O-]
solubility (mole fraction)
Conditions | 278.15 K | 283.15 K | 288.15 K | 293.15 K | 298.15 K | 303.15 K | 308.15 K | 313.15 K | 318.15 K
in DMAc | 0.121 | 0.14 | 0.162 | 0.189 | 0.221 | 0.258 | 0.3 | 0.347 | 0.4
in DMF | 0.0875 | 0.107 | 0.127 | 0.154 | 0.183 | 0.221 | 0.263 | 0.31 | 0.372
in THF | 0.157 | 0.177 | 0.203 | 0.231 | 0.264 | 0.302 | 0.342 | 0.391 | 0.446
in acetonitrile | 0.0355 | 0.0456 | 0.0608 | 0.0819 | 0.111 | 0.146 | 0.189 | 0.25 | 0.33
in ethanol | 0.00359 | 0.0046 | 0.00594 | 0.00791 | 0.00992 | 0.0131 | 0.0164 | 0.0215 | 0.0276
in methanol | 0.00266 | 0.00351 | 0.00447 | 0.00561 | 0.00719 | 0.00897 | 0.0112 | 0.0144 | 0.018
in n-butanol | 0.00491 | 0.00673 | 0.0088 | 0.0111 | 0.0143 | 0.0192 | 0.0241 | 0.0308 | 0.0405
in n-propanol | 0.00367 | 0.00463 | 0.00591 | 0.00789 | 0.0105 | 0.0137 | 0.0182 | 0.024 | 0.0311
